In ChEMBL document CHEMBL1126625, “7-Azetidinylquinolones as antibacterial agents. Synthesis and structure-activity relationships” (J Med Chem, 1993):
≈ marks a conversion by molar mass, not a printed value.

How the values were obtained:
Type in all cases: functional
[1] = tested on: Enterobacter cloacae; experiment: Minimum inhibitory concentration (MIC)preventing growth of Enterobacter cloacae
[2] = tested on: Staphylococcus aureus; experiment: Minimum inhibitory concentration (MIC) preventing growth of […]
[3] = tested on: Proteus vulgaris; experiment: Minimum inhibitory concentration (MIC) preventing growth of Proteus vulgaris
[4] = tested on: Klebsiella pneumoniae; experiment: Minimum inhibitory concentration (MIC)preventing growth of Klebsiella pneumoniae
[5] = tested on: Pseudomonas aeruginosa; experiment: Minimum inhibitory concentration (MIC)preventing growth of Pseudomonas aeruginosa
[6] = tested on: Bacillus cereus; experiment: Minimum inhibitory concentration (MIC) preventing growth of Bacillus cereus
[7] = tested on: Morganella morganii; experiment: Minimum inhibitory concentration (MIC) preventing growth of Morganella morganii
[8] = tested on: Bacillus subtilis; experiment: Minimum inhibitory concentration (MIC) preventing growth of Bacillus subtilis
[9] = tested on: Staphylococcus epidermidis; experiment: Minimum inhibitory concentration (MIC) preventing growth of Staphylococcus epidermidis
[10] = tested on: Enterococcus faecalis; experiment: Minimum inhibitory concentration (MIC) preventing growth of Streptococcus faecalis ATCC 10541
[11] = tested on: Escherichia coli; experiment: Minimum inhibitory concentration (MIC)preventing growth of Escherichia coli

| SMILES | MIC [1] [µg/mL] | MIC [2] [µg/mL] | MIC [3] [µg/mL] | MIC [4] [µg/mL] | MIC [5] [µg/mL] | MIC [6] [µg/mL] | MIC [7] [µg/mL] | MIC [8] [µg/mL] | MIC [9] [µg/mL] | MIC [10] [µg/mL] | MIC [11] [µg/mL] |
| --- | --- | --- | --- | --- | --- | --- | --- | --- | --- | --- | --- |
| NC(=O)C1CN(c2c(F)cc3c(=O)c(C(=O)O)cn(C4CC4)c3c2F)C1 | 0.25 (≈ 0.688 µM) | 0.25 (≈ 0.688 µM) | 0.25 (≈ 0.688 µM) | 0.06 (≈ 0.165 µM) | 4 (≈ 11 µM) | 0.25 (≈ 0.688 µM) | 0.25 (≈ 0.688 µM) | 0.06 (≈ 0.165 µM) | 0.5 (≈ 1.38 µM) | 0.5 (≈ 1.38 µM) | 0.25 (≈ 0.688 µM) |
| O=C(O)c1cn(C2CC2)c2cc(N3CCC3)c(F)cc2c1=O | 0.12 (≈ 0.397 µM) | 0.06 (≈ 0.198 µM) | 0.06 (≈ 0.198 µM) | 0.015 (≈ 0.0496 µM) | 2 (≈ 6.62 µM) | 0.06 (≈ 0.198 µM) | 0.25 (≈ 0.827 µM) | 0.015 (≈ 0.0496 µM) | 0.06 (≈ 0.198 µM) | 2 (≈ 6.62 µM) | 0.12 (≈ 0.397 µM) |
| CC1(CN)CN(c2c(F)cc3c(=O)c(C(=O)O)cn(C4CC4)c3c2F)C1 | 0.5 (≈ 1.38 µM) | 1 (≈ 2.75 µM) | 1 (≈ 2.75 µM) | 0.25 (≈ 0.688 µM) | 4 (≈ 11 µM) | 0.5 (≈ 1.38 µM) | 3 (≈ 8.26 µM) | 0.25 (≈ 0.688 µM) | 0.5 (≈ 1.38 µM) | 2 (≈ 5.5 µM) | 0.5 (≈ 1.38 µM) |
| CCNC1CN(c2cc3c(cc2F)c(=O)c2c(=O)[nH]sc2n3C2CC2)C1 | 0.03 (≈ 0.0801 µM) | 0.06 (≈ 0.16 µM) | 0.12 (≈ 0.32 µM) | 0.03 (≈ 0.0801 µM) | 0.5 (≈ 1.34 µM) | 0.12 (≈ 0.32 µM) | 0.06 (≈ 0.16 µM) | 0.03 (≈ 0.0801 µM) | 0.06 (≈ 0.16 µM) | 0.5 (≈ 1.34 µM) | 0.03 (≈ 0.0801 µM) |
| CC1(N)CN(c2cc3c(cc2F)c(=O)c(C(=O)O)cn3-c2ccc(F)cc2F)C1 | 0.25 (≈ 0.62 µM) | 0.25 (≈ 0.62 µM) | 0.25 (≈ 0.62 µM) | 0.12 (≈ 0.298 µM) | 2 (≈ 4.96 µM) | 0.25 (≈ 0.62 µM) | 0.25 (≈ 0.62 µM) | 0.12 (≈ 0.298 µM) | 0.25 (≈ 0.62 µM) | 0.12 (≈ 0.298 µM) | 0.12 (≈ 0.298 µM) |
| CCNCC1(C)CN(c2c(F)cc3c(=O)c(C(=O)O)cn(C4CC4)c3c2F)C1 | 0.25 (≈ 0.639 µM) | 0.25 (≈ 0.639 µM) | 0.25 (≈ 0.639 µM) | 0.25 (≈ 0.639 µM) | 2 (≈ 5.11 µM) | 0.25 (≈ 0.639 µM) | 0.25 (≈ 0.639 µM) | 0.12 (≈ 0.307 µM) | 0.25 (≈ 0.639 µM) | 1 (≈ 2.55 µM) | 0.25 (≈ 0.639 µM) |
| O=C(O)c1cn(C2CC2)c2c(F)c(N3CCC3)c(F)cc2c1=O | 0.25 (≈ 0.781 µM) | 0.25 (≈ 0.781 µM) | 0.25 (≈ 0.781 µM) | 0.25 (≈ 0.781 µM) | 2 (≈ 6.24 µM) | 0.25 (≈ 0.781 µM) | 0.25 (≈ 0.781 µM) | 0.015 (≈ 0.0468 µM) | 0.12 (≈ 0.375 µM) | 1 (≈ 3.12 µM) | 0.25 (≈ 0.781 µM) |
| CCn1cc(C(=O)O)c(=O)c2cc(F)c(N3CC(C)(N)C3)nc21 | 0.25 (≈ 0.78 µM) | 1 (≈ 3.12 µM) | 1 (≈ 3.12 µM) | 0.12 (≈ 0.375 µM) | 2 (≈ 6.24 µM) | 1 (≈ 3.12 µM) | 0.25 (≈ 0.78 µM) | 0.25 (≈ 0.78 µM) | 1 (≈ 3.12 µM) | 2 (≈ 6.24 µM) | 0.25 (≈ 0.78 µM) |
| CC1(N)CN(c2c(F)cc3c(=O)c(C(=O)O)cn(CCF)c3c2F)C1 | 1 (≈ 2.81 µM) | 1 (≈ 2.81 µM) | 1 (≈ 2.81 µM) | 1 (≈ 2.81 µM) | 4 (≈ 11.3 µM) | 1 (≈ 2.81 µM) | 1 (≈ 2.81 µM) | 0.25 (≈ 0.704 µM) | 1 (≈ 2.81 µM) | 4 (≈ 11.3 µM) | 1 (≈ 2.81 µM) |
| CCC1(O)CN(c2cc3c(cc2F)c(=O)c(C(=O)O)cn3C2CC2)C1 | 0.25 (≈ 0.722 µM) | 0.12 (≈ 0.346 µM) | 0.25 (≈ 0.722 µM) | 0.12 (≈ 0.346 µM) | 2 (≈ 5.77 µM) | 1 (≈ 2.89 µM) | 0.5 (≈ 1.44 µM) | 0.015 (≈ 0.0433 µM) | 0.12 (≈ 0.346 µM) | 1 (≈ 2.89 µM) | 0.12 (≈ 0.346 µM) |
| CS(=O)(=O)OC1CN(c2c(F)cc3c(=O)c(C(=O)O)cn(C4CC4)c3c2F)C1 | 0.5 (≈ 1.21 µM) | 0.06 (≈ 0.145 µM) | 0.25 (≈ 0.603 µM) | 0.015 (≈ 0.0362 µM) | 8 (≈ 19.3 µM) | 0.12 (≈ 0.29 µM) | 0.5 (≈ 1.21 µM) | 0.015 (≈ 0.0362 µM) | 0.06 (≈ 0.145 µM) | 0.5 (≈ 1.21 µM) | 0.25 (≈ 0.603 µM) |
| CNC1CN(c2nc3c(cc2F)c(=O)c(C(=O)O)cn3C2CC2)C1 | 0.03 (≈ 0.0903 µM) | 0.25 (≈ 0.752 µM) | 0.25 (≈ 0.752 µM) | 0.03 (≈ 0.0903 µM) | 0.5 (≈ 1.5 µM) | 0.12 (≈ 0.361 µM) | 0.06 (≈ 0.181 µM) | 0.06 (≈ 0.181 µM) | 0.12 (≈ 0.361 µM) | 0.5 (≈ 1.5 µM) | 0.03 (≈ 0.0903 µM) |
| CC1(N)CN(c2c(F)cc3c(=O)c4c(=O)[nH]sc4n(C4CC4)c3c2F)C1 | 0.06 (≈ 0.159 µM) | 0.12 (≈ 0.317 µM) | 0.12 (≈ 0.317 µM) | 0.06 (≈ 0.159 µM) | 0.5 (≈ 1.32 µM) | 0.12 (≈ 0.317 µM) | 0.06 (≈ 0.159 µM) | 0.03 (≈ 0.0793 µM) | 0.06 (≈ 0.159 µM) | 0.5 (≈ 1.32 µM) | 0.06 (≈ 0.159 µM) |
| CCn1cc(C(=O)O)c(=O)c2c(N)c(F)c(N3CC(C)(N)C3)c(F)c21 | 0.25 (≈ 0.71 µM) | 0.5 (≈ 1.42 µM) | 0.5 (≈ 1.42 µM) | 0.25 (≈ 0.71 µM) | 2 (≈ 5.68 µM) | 1 (≈ 2.84 µM) | 0.25 (≈ 0.71 µM) | 0.12 (≈ 0.341 µM) | 0.5 (≈ 1.42 µM) | 1 (≈ 2.84 µM) | 0.25 (≈ 0.71 µM) |
